Entries after “also recorded” stand apart in the source; their conditions may differ.
Legend:
[1] = test system: EAE mice; experiment: L-DOPS, Atomoxetine and combination in EAE mice (Example 13); type: in vivo; details: from day 17 after booster MOG, tri-weekly, L-DOPS 400 mg/kg s.c. plus 125 mg/kg bensazeride i.p., Atomoxetine 20 mg/kg
From the text: (§1) To assess disease severity, clinical signs were scored as follows: 0 indicated no clinical signs, 1 indicated a limp tail, 2 indicated an impaired righting of the animal, 3 indicated paresis of one hind limb, 4 indicated paresis of two hind limbs, and 5 indicated the death of the animal.
To test whether increasing NA derived from the NA precursor L-DOPS in combination with a NA reuptake inhibitor could provide benefit in EAE, C57B16 mice were immunized with MOG35-55 peptide using standard procedures as described in Example 9.

[2] = test system: EAE mice; experiment: L-DOPS treatment of EAE mice (Example 10); type: in vivo
Procedure: To test whether increased NA derived from the NA precursor L-DOPS could provide benefits in EAE, C57B16 mice were immunized with MOG35-55 peptide using standard procedures. At day 29 (FIG. 11A, arrow) after the booster MOG, 6 mice received daily injections of L-DOPS (using an intermediate dose of 200 mg/kg s.c.; plus 125 mg/kg bensazeride i.p. to block peripheral conversion to NA); control mice received saline. In the saline group, 4/6 mice were ill on day 29, and by day 36 all 6 were ill (FIG. 11A); the average clinical score increased from 1.3±0.4 (mean±se) on day 29 to 2.3±0.2 on day 37 (FIG. 11B). […] During treatment, scores of 2 of the 4 mice improved, and the average score decreased from 1.5±0.5 on day 29 to 1.2±0.4 on day 38.
as §1

[3] = test system: mouse neuronal N2A cells; experiment: NEP activity in N2A cells incubated with NA; type: cell-based; details: N2A cells incubated with NA for 24 hr
Procedure: Comparative real time RT-PCR (or quantitative PCR, QPCR) was used to measure mRNA levels of the Aβ degrading enzymes neprilysin (Nep) and insulin degrading enzyme (IDE) in brain samples from vehicle and DSP4 treated mice (FIG. 4A). Neprilysin activity in brain extracts was assayed by monitoring proteolysis of a fluorescent substrate (FIG. 4B). To assess the effects of dose, mouse neuronal N2A cells were incubated with increasing does of NA for 24 hr after which NEP activity was measured (FIG. 4D, data is mean±sd and is from n=3 samples).
In the results shown in FIG. 4D, mouse neuronal N2A cells were incubated with NA for 24 hr after which NEP activity was measured. Data is mean±sd and is from n=3 samples.

[4] = test system: primary microglia; experiment: Microglial phagocytosis of FITC-labeled Aβ1-42 (FACS); type: cell-based, mouse; details: 10 nM to 10 μM, 4 hr, FITC-Aβ1-42 150 μM
Procedure: The ability of NA to modulate Aβ phagocytosis, another means by which amyloid plaque burden is regulated, was tested. Primary microglia were incubated with indicated concentrations of NA (FIG. 5A) or the β-AR agonist isoproterenol (FIG. 5B), in the presence of FITC-labeled Aβ1-42 (150 μM). After 4 hr, intracellular levels of Aβ were determined as described below.
Primary murine microglial cells were generated at P1 according to standard protocols. Briefly, frontal cortices of one day old C57BL6 mice were used to prepare mixed glial cultures in T75 cm^2 flasks in DMEM containing 10% FCS and antibiotics (100 IU/mL of penicillin and 100 ug/mL of streptomycin; Sigma), and incubated at 37° C. in a humidified atmosphere containing 5% CO2. Microglia were detached from the astrocyte monolayer by gentle shaking 11-13 days after the dissection, and cultures were 95-98% Mac1 positive.
FACS analysis was used to quantify microglial phagocytosis of Aβ1-42. […] Fluorescent signals due to cell adherent Aβ were eliminated by resuspending an aliquot of cells in an equal volume of 1 mg trypan blue/mL (Merck, Darmstadt, Germany) acetate buffer to quench extracellular fluorescence. The mean fluorescence intensity (MFI) was measured on a FACScan (Becton Dickinson, Mountain View, Calif.) equipped with an argon-ion laser (excitation wavelength at 488 nm, laser power 300 mW) and a band pass filter of 530 nm. […]

[5] = test system: primary neurons; experiment: Aβ-induced neuronal damage in primary neurons (LDH release, FJ staining); type: cell-based; details: LDH release and FJ staining
Procedure: The levels of neuronal damage, using LDH release as a neuronal damage marker, were measured as a percentage of control. C: control; Aβ: primary neurons treated with Aβ; Aβ+NA: primary neurons treated Aβ and NA; and Aβ+dbcAMP: primary neurons treated with Aβ and dbcAMP. […] The staining intensity was quantified as a percentage of control as illustrated in the graph in FIG. 9B.

[6] = test system: oligodendrocyte progenitor cells (OPCs); experiment: Oligosphere / OPC maturation by immunostaining; type: cell-based, mouse
Procedure: Initial studies were carried out to identify treatments that influence OLG maturation using primary oligodendrocyte progenitor cells (OPCs) from E13 mouse pups. The cells were isolated as E13 neurospheres, and were shifted to OLG commitment (Oligospheres) by culture in PDGFα and bFGF. E13 Oligospheres were cultured on polylysine coated slides in media (containing bFGF and PDGFα) in the presence or absence of 25 μM NA. After 2 days the cells were fixed and stained with antibody to MBP (FIGS. 12A and 12B).
Further studies were carried out in which the oligospheres were cultured on polylysine coated slides in media (containing bFGF and PDGFα) in the presence or absence of 20 μM NA. After 24 hours the cells were fixed and stained with antibodies for PDGFRa, Oligodendrocyte Marker O4 and PLP (FIGS. 13 and 14).

[7] = test system: P1 OPCs; experiment: QPCR of myelin genes in P1 OPCs treated with NA; type: cell-based; details: NA versus saline
Procedure: Additional studies were carried out in which QPCR analysis was performed for BMPs, BMP antagonists and myelin genes on P1 OPCs treated with saline or NA. The QPCR condition and primers are as described in Example 3. For QPCR experiments, RNA levels were calculated from QPCR take-off points, normalized for RNA values obtained for GDH; the average value for the vehicle treated RNA levels was set to 1.0. Comparisons were made using unpaired T-test, and P values <0.05 were considered to be significant. (FIGS. 15A and 15B).

[8] = test system: BMP2; experiment: QPCR of BMP2 mRNA in primary astrocytes; type: cell-based; details: 100 μM NA, 24 hr
From the text: (§2) As shown in FIGS. 12C and 12D, BMP2 and BMP4 mRNA levels were decreased in astrocytes treated with NA. Data is mean±sd of n=2-3 experiments, and normalized to values for β-tubulin measured in the same samples.

[9] = test system: BMP4; experiment: QPCR of BMP4 mRNA in primary astrocytes; type: cell-based
Procedure: as §2
(§3) Further studies were carried out in which primary astrocytes were treated with 30 μM NA for 24 hours then mRNA levels of bone morphogenic proteins BMP2 and BMP4, Noggin, Gremlin, Follistatin and BAMBI were measured by QPCR (FIG. 16A). The results confirmed that BMP4 mRNA levels were decreased, whereas the Noggin mRNA levels were increased, in NA treated primary astrocytes (FIG. 16A).

[10] = test system: Noggin; experiment: Noggin mRNA (QPCR) and protein staining in primary astrocytes; type: cell-based
Procedure: as §3

SMILES: CNCC[C@@H](Oc1ccccc1C)c1ccccc1 [Atomoxetine]
- clinical scores / EAE symptoms [1]: no effect on clinical scores
- clinical scores / EAE symptoms ([1]; listed as Axtomoxtine): limited benefit

SMILES: N[C@H](C(=O)O)[C@H](O)c1ccc(O)c(O)c1 [L-DOPS, (−)-threo-3-(3,4-dihydroxyphenyl)-L-serine]
- clinical scores in EAE mice ([2]; FIGS. 11A-11C): prevents the worsening of clinical scores
- ill mice whose scores improved during treatment ([2]; L-DOPS group): 2 of the 4
- incidence of disease during treatment ([2]; L-DOPS group after day 29, saline all 6 ill by day 36): did not further increase
- mice ill on day 29 ([2]; L-DOPS group, first day of treatment): 4/6
- average clinical score, day 38 ([2]; daily L-DOPS 200 mg/kg s.c. plus 125 mg/kg bensazeride i.p. from day 29, saline 2.3±0.2 on day 37): 1.2±0.4
- average clinical score, day 29 ([2]; first day of L-DOPS 200 mg/kg s.c. plus 125 mg/kg bensazeride i.p., mean±se): 1.5±0.5
- clinical scores / EAE symptoms [1]: Benefits to EAE were seen; also recorded: stabilized scores

SMILES: NC[C@H](O)c1ccc(O)c(O)c1 [NA, noradrenaline]
- NEP activity in cell culture [3]: increases NEP activity
- accumulation of fluorescently tagged Aβ1-42 (intracellular Aβ uptake) [4]: dose dependently increased
- Aβ induced damage in primary neurons [5]: reduces Aβ induced damage
- OPC maturation, PDGFRa, O4 and PLP staining ([6]; 20 μM NA, 24 hours): accelerated OPC maturation
- OPC maturation, PDGFa, O4 and PLP staining (figure legends) ([6]; 30 μM NA, 24 hours): induces more processes and greater a number of cells; also recorded: increased OPC maturation
- OPC maturation, MBP staining ([6]; E13 oligospheres, 25 μM NA, 2 days): accelerated OPC maturation
- OPC maturation by Olig1, Olig2, GALc and CGT mRNA levels [7]: increases OPC maturation
- BMP2 mRNA levels [8]: decreased
- BMP4 mRNA levels ([9]; 30 μM NA, 24 hours): decreased
- BMP4 mRNA levels ([9]; 100 μM NA, 24 hr): decreased
- Noggin protein expression (antibody staining) ([10]; NA-treated primary astrocytes): increased Noggin expression
- Noggin mRNA levels ([10]; primary astrocytes, 30 μM NA, 24 hours): increased

SMILES: CC(C)NCC(O)c1ccc(O)c(O)c1 (stereo not shown) [isoproterenol]
- accumulation of fluorescently tagged Aβ1-42 (intracellular Aβ uptake) [4]: dose dependently increased

— patent US8580776B2, “Compositions and methods for treating neurodegenerating diseases” (The Board of Trustees of the University of Illinois, priority 2007, dated 2013)
